From patent US20110059123A1, “Inhibition of the Survival of Colorectal Cancer by Cyclohexenone Compounds from Antrodia Camphorata” (GOLDEN BIOTECHNOLOGY CORPORATION, priority 2009, published 2011)

System: colorectal cancer cell line WiDr
Test: In vitro survival assay (MTT) for anti-colorectal cancer effects
Assay type: cell-based
Details: WiDr human colon adenocarcinoma cells, 48 hours treatment, survival rate
Experimental: Inhibiting effects of colorectal cancer cells by cyclohexenone compounds of Antrodia camphorata from example 1 were assessed according to the anticancer-drug screening model of National Cancer Institute (NCI). The compound 4-hydroxy-2,3-dimethoxy-6-methyl-5-(3,7,11-trimethyl-dodeca-2,6,10-trienyl)-cyclohex-2-enone from example 1 was added into the culture media of colorectal cancer cell line WiDr to determine the survival rates. Survival of cell was analyzed using MTT assay. WiDr cell line was a human colon adenocarcinoma cell line.
MTT assay is commonly used to analyze cell proliferation, survival rate of viable cells and cytotoxicity. MTT (3[4,5-dimethylthiazol-2-yl]-2,5-diphenyltetrazolium bromide) is a yellow dye which can be converted to water-insoluble purple formazan on the reductive cleavage of its tetrazolium ring by the succinate tetrazolium reductase in mitochondria of cells. The amount of formazan produced is used to detect the number of viable cells and calculate the survival rates.
The WiDr cells were cultivated in RPMI 1640 medium supplemented with 10% fetal bovine serum, 100 IU/ml of Penicillin and […] of Streptomycin at 37° C., 5% CO2 for 24 hours. Proliferated cells were washed once with PBS, treated with 1× trypsin-EDTA, and centrifuged at 1200 rpm for 5 min. […] The absorbances were measured at 570 nm with an ELISA Reader to determine the survival rates.

COC1=C(OC)C(O)C(C/C=C(\C)CC/C=C(\C)CCC=C(C)C)C(C)C1=O (stereo not shown) [formula 2, 4-hydroxy-2,3-dimethoxy-6-methyl-5-(3,7,11-trimethyl-dodeca-2,6,10-trienyl)-cyclohex-2-enone]
IC50: 0.92 mg/L
